The assay deals with mouse cortical cells. The assay is described as follows: Protection of cortical cells from apoptosis (hydrogen peroxide, MTT). The class given is cell-based. The conditions noted are these: approx. 0.1 μM, 50 μM hydrogen peroxide. Here is the method: To induce apoptosis, mouse cortical cells were cultured and treated with 50 μM hydrogen peroxide for three hours prior to being treated with the ganglioside analogue. The cells were also treated with the hydrogen peroxide during treatment with the ganglioside analogue and post-treatment for 48 h. Cell death was assayed using the MTT assay.

Experimental findings from US7888331B2, “Ganglioside compositions and methods of use” (Seneb Biosciences, Inc., priority 2003, dated 2011) are described below.

In the case of LIGA-20, the “protection of the cells from apoptosis” value is on record as “approximately 20%”.
